This test addresses T1, MAGL protein (Homo sapiens, UniProt Q99685).
T1 sequence (Q99685 1-303): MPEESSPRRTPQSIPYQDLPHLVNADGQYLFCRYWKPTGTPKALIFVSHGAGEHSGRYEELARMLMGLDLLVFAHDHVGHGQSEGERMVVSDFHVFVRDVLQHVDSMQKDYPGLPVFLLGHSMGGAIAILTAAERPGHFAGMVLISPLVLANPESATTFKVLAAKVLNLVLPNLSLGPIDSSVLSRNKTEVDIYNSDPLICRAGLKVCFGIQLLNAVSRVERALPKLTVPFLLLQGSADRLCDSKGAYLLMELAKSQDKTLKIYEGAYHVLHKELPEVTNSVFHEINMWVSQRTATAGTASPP
As to the kind of experiment: 2-AG assay: MAGL inhibitory activity by hydrolysis of 2-arachidonoylglycerol to arachidonic acid, followed by mass spectrometry. The format is biochemical. The conditions noted are these: 8 μM 2-arachidonoylglycerol, 15 min preincubation, 30 min reaction at RT, RapidFire MS readout. The gist of the method: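 MAGL was preincubated 15 min at RT with compound (12.5 to […], 3-fold steps) in 50 mM TRIS, 1 mM EDTA, 0.01% Tween-20, 2.5% DMSO. The reaction ran 30 min at RT with 8 μM 2-AG. Arachidonic acid was quantified by RapidFire SPE-MS/MS against a d8-arachidonic acid internal standard.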

Consider `O=C(N1CC(c2ccc(N3CC(C(F)(F)F)C3)cc2)C1)N1CC2(CC(c3nnc(C4CC4)[nH]3)C2)C1` [compound 261], for which it took 0.36 nM to reach half-maximal inhibition (IC50).

On to `O=C(N1CC(c2ccc(N3CC(C(F)(F)F)C3)cc2)C1)N1CC2(CC(c3nnc(C4(O)CC4)[nH]3)C2)C1` [compound 262], for which half-maximal inhibition (IC50) was put at 1.96 nM.

`O=C(N1CC(c2cnc(N3CC(C(F)(F)F)C3)nc2)C1)N1CC2(CC(c3nnc(C4CC4)[nH]3)C2)C1` [compound 263]: half-maximal inhibition (IC50) required 8.21 nM.

In the case of `O=C(N1CC(c2cnc(N3CCC(C(F)(F)F)C3)nc2)C1)N1CC2(CC(c3nnc(C4CC4)[nH]3)C2)C1` (stereo not drawn) [compound 264], the IC50 (in general, the concentration that gives 50% inhibition) was determined as 2.27 nM.

Consider `O=C(N1CC(c2ccc(N3CC[C@H](C(F)(F)F)C3)nc2)C1)N1CC2(CC(c3nnc(C4CC4)[nH]3)C2)C1` [compound 267], for which the half-inhibitory concentration (IC50) came out at 0.31 nM.

In turn, `O=C(N1CC(c2ccc(N3CC[C@@H](C(F)(F)F)C3)nc2)C1)N1CC2(CC(c3nnc(C4CC4)[nH]3)C2)C1` [compound 268] had an IC50 of 0.35 nM.

As for `O=C(N1CC(c2ccc(N3CCC(O)(C(F)(F)F)C3)nc2)C1)N1CC2(CC(c3nnc(C4CC4)[nH]3)C2)C1` (stereo not drawn) [compound 269], it took 2.29 nM to reach half-maximal inhibition (IC50).

In the case of `O=C(N1CC(c2ccc(NC3(C(F)(F)F)CC3)nc2)C1)N1CC2(CC(c3nnc(C4(O)CC4)[nH]3)C2)C1` [compound 272], half-maximal inhibition (IC50) required 3.67 nM.

On to `O=C(N1CC(c2ccc(NC3(C(F)(F)F)CC3)nc2)C1)N1CC2(CC(c3nnc(C4CCC4)[nH]3)C2)C1` [compound 273], for which the half-maximal inhibitory concentration (IC50) is 10.7 nM.

Molecule `O=C(N1CC(c2ccc(NC3(C(F)(F)F)CC3)cc2)C1)N1CC2(CC(c3nnc(C4CC4)[nH]3)C2)C1` [compound 274] returned a 50% inhibitory concentration (IC50) of 0.23 nM.

The molecule `O=C(N1CC(c2ccc(N3CC(O)(C(F)(F)F)C3)nc2)C1)N1CC2(CC(c3nnc(C4CC4)[nH]3)C2)C1` [compound 275] showed an IC50 of 2.07 nM.

Take `CC(C)c1cc(C(C)C)n(-c2ccc(C3CN(C(=O)N4CC5(CC(c6nnc(C7CC7)[nH]6)C5)C4)C3)cc2)n1` [compound 276]: the IC50 was 0.17 nM.

Regarding `Cc1cc(C(C)(C)C)nn1-c1ccc(C2CN(C(=O)N3CC4(CC(c5nnc(C6CC6)[nH]5)C4)C3)C2)cc1` [compound 277], the 50% inhibitory concentration (IC50) came to 0.17 nM.

`Cc1cc(C(F)(F)F)nn1-c1ccc(C2CN(C(=O)N3CC4(CC(c5nnc(C6CC6)[nH]5)C4)C3)C2)cc1` [compound 278] came in with an IC50 of 0.3 nM.

In the case of `O=C(N1CC2(CCN(c3ncc(Cl)cc3F)CC2)C1)N1CC2(CC(c3nnc(C4CC4)[nH]3)C2)C1` [compound 281], the IC50 worked out at 1.02 nM.

`O=C(N1CC(c2ccc(C3CC(C(F)F)C3)cc2)C1)N1CC2(CC(c3nnc(C4(O)CC4)[nH]3)C2)C1` (stereo not drawn) [compound 282]: 1.03 nM corresponded to half-maximal inhibition (IC50).

With `O=C(N1CC2(CCN(c3ccc(Cl)cc3F)CC2)C1)N1CC2(CC(c3nnc(C4CC4)[nH]3)C2)C1` [compound 283], it took 0.88 nM to reach half-maximal inhibition (IC50).

In turn, `O=C(N1CC(c2ccc(-n3ccc(C(F)(F)F)cc3=O)cc2)C1)N1CC2(CC(c3nnc(C4CC4)[nH]3)C2)C1` [compound 284] registered an IC50 of 1.59 nM.

In turn, `Cc1cc(C(F)F)nn1-c1ccc(C2CN(C(=O)N3CC4(CC(c5nnc(C6CC6)[nH]5)C4)C3)C2)cc1` [compound 285] registered a 50% inhibitory concentration (IC50) of 0.37 nM.

Take `O=C(N1CC(c2cnc(C3CC4(CCC4)C3)cn2)C1)N1CC2(CC(c3nnc(C4CC4)[nH]3)C2)C1` [compound 286]: half-maximal inhibition (IC50) was put at 0.48 nM.

On to `Cc1cc(C2CC2)n(-c2ccc(C3CN(C(=O)N4CC5(CC(c6nnc(C7CC7)[nH]6)C5)C4)C3)cc2)n1` [compound 287], for which the IC50 was determined as 0.13 nM.

`Cc1cc(C2CC2)nn1-c1ccc(C2CN(C(=O)N3CC4(CC(c5nnc(C6CC6)[nH]5)C4)C3)C2)cc1` [compound 288] displayed an IC50 of 0.19 nM.

The molecule `O=C(N1CC(c2ccc(N3CCC4(C3)CC4(F)F)nc2)C1)N1CC2(CC(c3nnc(C4CC4)[nH]3)C2)C1` (stereo not drawn) [compound 289] gave a half-maximal inhibitory concentration (IC50) of 0.45 nM.

Molecule `O=C(N1CC(c2ccc(N3CC4(CCOC4)C3)nc2)C1)N1CC2(CC(c3nnc(C4CC4)[nH]3)C2)C1` [compound 290] displayed an IC50 of 21 nM.

(Values after patent publication US20250099448A1, “HETEROCYCLIC COMPOUNDS” (Hoffmann-La Roche Inc., priority 2022, published 2025).)
